Laboratory results: article PMC4129108, “The natural triterpene 3β,6β,16β-trihydroxy-lup-20(29)-ene obtained from the flowers of Combretum leprosum induces apoptosis in MCF-7 breast cancer cells” (BMC Complementary and Alternative Medicine, 2014)
In brackets after ≈: the same amount, converted by molar mass.

Experiments:
[1] = tested on: CACO-2 (colorectal adenocarcinoma); experiment: XTT cell viability assay, CACO-2; format: cell-based, human; details: for IC50: Homo sapiens, XTT
Method: (§1) The human cell lines MCF-7 (breast adenocarcinoma), HepG2 (hepatoma), T24 (bladder cancer), CACO-2 (colorectal adenocarcinoma) and MRC5 (lung normal fibroblast) were obtained from the Rio de Janeiro Cell Bank (Rio de Janeiro, RJ, Brazil). The HCT116 cell (colorectal carcinoma), and HT29 cell (colorectal adenocarcinoma) were kindly provided by Dr. Annette K. Larsen (Institut National de la Santé et de la Recherche Médicale - INSERM, Paris, França). All cell lines except MCF-7 were grown in DMEM supplemented with 10% or 20% (for CACO-2) FBS, 100 units.mL^-1 penicillin and 100 μg.mL^-1 streptomycin at 37°C in a humidified atmosphere of 5% CO2. MCF-7 cells were maintained in RPMI-1640 supplemented with 20% FBS at the same conditions described above.
(§2) The cytotoxic potential of the TTHL was evaluated by the XTT assay in human tumor cell lines as well as in MRC5 normal fibroblasts. Cells (1 × 10^4 cells) were seeded on 96-well plates in growth medium and incubated overnight. Afterwards, TTHL (0.5, 1.0, 2.5, 5.0, and 10 μg/mL) was added to each well and incubated for 24, 48, 72, and 120 h. Mitoxantrone, a cytostatic anthracenedione that intercalates in DNA and increases the incidence of double-strand breaks by stabilizing the cleavable complex of topoisomerase II and DNA, was used as positive control. At the end of each treatment, cell viability was assessed according to the manufacturer’s instructions. Briefly, after discarding the medium, 1 mL of XTT labeling mixture was added to the cells and incubated for 2 h at 37°C. Absorbance was measured with a SpectraMax reader (Bio-Rad, USA) at a test wavelength of 492 nm (A492) and a reference wavelength of 690 nm (A690). The final result corresponds to A492-A690. The absorbance of negative control cells was set as 100% viability, and the values for treated cells were calculated as a percentage of the control.
(§3) The IC20, IC50, and IC80 values and their 95% confidence intervals (CI 95%) were obtained by nonlinear regression using GraphPad Prism v5 program (Intuitive Software for Science, San Diego, CA, USA). Selective index (SI) was calculated by IC50 in MRC5 cells/IC50 in tumoral cells. All experiments were independently repeated at least three times, with triplicate samples for each treatment. Results are expressed as means ± standard deviation (SD). Data were analyzed by one-way analysis of variance (ANOVA), and means were compared using Tukey test, with P ≤ 0.05 considered as statistically significant.

[2] = tested on: S. cerevisiae EG133 (sod1Δsod2Δ); experiment: Yeast survival assay, EG133 (sod1Δsod2Δ); format: cell-based, Saccharomyces cerevisiae; details: for survival (percentage in relation to negative control): STAT cells, 1 h in PBS 30°C
Method: Media, solutions and buffers were prepared according to Burke et al.. YPD medium (0.5% yeast extract, 2% peptone, 2% glucose) was used for routine growth. Synthetic medium SC (0.67% yeast nitrogen base, 0.1% ammonium sulfate, 2% glucose) supplemented with the appropriate amino acids and bases ([…]) was used for the detection of mutations.
Stationary phase (STAT) cultures were obtained by inoculation of a single colony into liquid YPD. We chose to work in the stationary phase of growth because this resembles most cells of multicellular organisms in important aspects: (i) most energy comes from mitochondrial respiration; (ii) the cells have left the active cell cycle and have entered the Go phase; and (iii) damage accumulates over time.
STAT cells (1 × 10^8 cells/mL) were exposed to TTHL (10–500 μg/mL) and incubated under growth conditions for 1 h in PBS at 30°C. Cells were then washed and treated with H2O2 (5 mM) in PBS for another hour. Suitable aliquots were plated in triplicate on solid YPD (2–3 days, 30°C) and colony-forming units were counted. Sensitivity was expressed as a percentage of survival in relation to the negative control (solvent).

[3] = tested on: HCT116 cell (colorectal carcinoma); experiment: XTT cell viability assay, HCT116; format: cell-based, human; details: for IC50: Homo sapiens, HCT-116, XTT
Method: as §1, §2, §3

MCF-7 cells [4] = experiment: Apoptosis by flow cytometry (Annexin V-PE/7-AAD); format: cell-based, human; details: MCF-7, 24 h
Method: (§4) Cells (2 × 10^5 cells/mL) were seeded on 6-well tissue culture plates, and grown for 1 day up to 70–80% confluence before treatment with the test substance. The TTHL was added to medium with FBS to obtain the different concentrations, and cells were treated at 37°C for 24 h in humidified atmosphere containing 5% CO2.
Annexin V-PE was used in conjunction with a vital dye, 7-AAD, to distinguish apoptotic (Annexin V-PE positive, 7-AAD negative) from necrotic (Annexin V-PE positive, 7-AAD positive) cells. After treatment, cells were trypsinized, collected and resuspended in 40 μL of binding buffer with 2 μL Annexin V-PE. Cells were incubated for 15 min in the dark at room temperature. After incubation, 160 μL of binding buffer and 2 μL of 7-AAD were added. Cells were incubated for 5 min and additional 200 μL of binding buffer were added. Before analysis, cells were filtered through a cell strainer cap fitted to a polystyrene round bottom flow cytometric tube. Data were collected and analyzed by a FACS Calibur flow cytometer with CellQuest software, in a total of 10,000 events per sample; fluorescence was measured and the percentage of viable, early apoptotic, late apoptotic and necrotic cells was determined.

MCF-7 cells [5] = experiment: Cell cycle distribution by flow cytometric analysis (PI); format: cell-based, human; details: MCF-7, 24 h
Method: as §4
Cell cycle distribution determination analysis was performed as previously described. After treatment, cells were trypsinized, centrifuged and resuspended in ice-cold 70% ethanol, and left for 24 h at 4°C. Ethanol-fixed cells were centrifuged, washed with PBS and resuspended in buffer containing 0.2 mg/mL RNAse, 50 μg/mL PI and 0.1% Triton X-100, and incubated for 30 min at room temperature. Samples were analyzed on a FACS Calibur flow cytometer (Becton-Dikinson, San Fransisco, CA) using the CellQuest software. A total of 10,000 events were measured per sample. The data were analyzed to determine the percentage of cells at each phase of the cell cycle (sub-G1, G1, S and G2/M).

C=C(C)[C@@H]1CC[C@@]2(C)[C@H]1[C@H]1CC[C@@H]3[C@@]4(C)CC[C@H](O)C(C)(C)[C@@H]4[C@H](O)C[C@@]3(C)[C@]1(C)C[C@@H]2O [TTHL, 3β,6β,16β-trihydroxy-lup-20(29)-ene]
IC50 ([1]; CACO-2, 24 h treatment): 8.55 ± 0.35 µg/mL (≈ 18.6 µM)
IC50 ([1]; CACO-2, 48 h treatment): 7.9 ± 0.28 µg/mL (≈ 17.2 µM)
IC50 ([1]; CACO-2, 72 h treatment): 6.35 ± 0.35 µg/mL (≈ 13.8 µM)
IC50 ([1]; CACO-2, 120 h treatment): 5 ± 0.19 µg/mL (≈ 10.9 µM)
Selectivity index (SI) ([1]; IC50 in MRC5 cells/IC50 in CACO-2, 24 h): MR (MR: more resistant in tumoral cells)
Selectivity index (SI) ([1]; IC50 in MRC5 cells/IC50 in CACO-2, 48 h): MR (MR: more resistant in tumoral cells)
Selectivity index (SI) ([1]; IC50 in MRC5 cells/IC50 in CACO-2, 72 h): 1 X
Selectivity index (SI) ([1]; IC50 in MRC5 cells/IC50 in CACO-2, 120 h): 1 X
survival (percentage in relation to negative control) ([2]; TTHL 10 μg/mL): 79.35 ± 2.19 %
survival (percentage in relation to negative control) ([2]; TTHL 50 μg/mL): 67.85 ± 10.54 %
survival (percentage in relation to negative control) ([2]; TTHL 100 μg/mL): 58.15 ± 3.89 %
survival (percentage in relation to negative control) ([2]; TTHL 500 μg/mL): 41.45 ± 4.03 %
sensitivity of the strain to TTHL (in words) ([2]; deficient in superoxide dismutase): hypersensitive
IC50 ([3]; HCT116, 24 h treatment): 7.05 ± 0.21 µg/mL (≈ 15.4 µM)
IC50 ([3]; HCT116, 48 h treatment): 5.87 ± 0.04 µg/mL (≈ 12.8 µM)
IC50 ([3]; HCT116, 72 h treatment): 5.2 ± 0.28 µg/mL (≈ 11.3 µM)
IC50 ([3]; HCT116, 120 h treatment): 4.5 ± 0.29 µg/mL (≈ 9.81 µM)
Selectivity index (SI) ([3]; IC50 in MRC5 cells/IC50 in HCT116, 24 h): 1 X
Selectivity index (SI) ([3]; IC50 in MRC5 cells/IC50 in HCT116, 48 h): 1 X
Selectivity index (SI) ([3]; IC50 in MRC5 cells/IC50 in HCT116, 72 h): 1 X
Selectivity index (SI) ([3]; IC50 in MRC5 cells/IC50 in HCT116, 120 h): 1.5 X
apoptosis induced (% of MCF-7 cells) (MCF-7 cells [4]; TTHL at IC50): 14%
percentage of necrotic cells (labeled with 7-AAD) (MCF-7 cells [4]; TTHL at IC50): less than 5%
cells in early apoptosis (labeled with annexin V-PE) (MCF-7 cells [4]; TTHL at IC80): approximately 55%
cells in late apoptosis (labeled with both annexin V-PE and 7-AAD) (MCF-7 cells [4]; TTHL at IC80): 15%
percentage of necrotic cells (labeled with 7-AAD) (MCF-7 cells [4]; TTHL at IC80): less than 5%
change in cell cycle progression (MCF-7 cells [5]; TTHL at IC20, IC50, IC80): no significant change in cell cycle progression
sub-G1 population (MCF-7 cells [5]; seen at IC50 and IC80, concentration-dependent): significant increase in the sub-G1 population
